From patent US20020137929A1, “1 - (3-heterocyclylphenyl) isothiourea, -isourea, -guanidine and -amidine herbicidal agents” (Intellectual Property Department, BASF Aktiengesellschaft, priority 1998, published 2002)

Key:
[1] = test system: CHEAL (Lambsquarters, Common); test: Postemergence herbicidal evaluation; type: in vivo, Chenopodium album; conditions: postemergence
Procedure, shortened: (§1)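 ~2-wk seedlings; postemergence spray, 40 psi; vehicle 1:1 acetone:water + 0.5% Tween 20; rate ≈0.0156–0.500 kg/ha; greenhouse hold; scored 4–5 wk after treatment, 0–9 scale vs control; repeat tests averaged.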

[2] = test system: GALAP (Galium); test: Preemergence herbicidal evaluation; type: in vivo, Galium aparine; conditions: rated 4-5 weeks after treatment
Procedure, shortened: (§2)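 Seeds were mixed with potting soil and planted on about one inch of soil, then sprayed with test compound in aqueous acetone at about 0.0156 to 0.500 kg per hectare. Plants grew under standard greenhouse care and were visually rated 0-9 against untreated controls 4-5 weeks post-treatment.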

[3] = test system: CYPIR (Rice Flatsedge); test: Preemergence weed control under flooded paddy conditions; type: in vivo, Cyperus iria; conditions: rated 3-4 weeks after treatment
Procedure, shortened: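 Flooded-pot preemergence screen with silt loam and seeds in the upper 0.5 cm. Dose about 0.0313 to 0.500 kg/ha, delivered into flood water; visual 0-9 score after 3 to 4 weeks.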

[4] = test system: SAGPY (Arrowhead (Pygmaea)); test: as above; type: in vivo, Sagittaria pygmaea; conditions: rated 3-4 weeks after treatment
Procedure, shortened: (§3)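 Greenhouse paddy assay. Acetone/water (50/50 v/v) solutions dosed into flood water, equivalent to about 0.0313 to 0.500 kg/ha active ingredient, over seeds planted 0.5 cm deep in silt loam. Score: 0-9 visual, based on stand, vigor, malformation, size and chlorosis, 3 to 4 weeks after treatment.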

[5] = test system: ECHCG (Barnyardgrass); test: Postemergence herbicidal evaluation; type: in vivo, Echinochloa crus-galli; conditions: postemergence
Procedure, shortened: as §1

[6] = test system: TRZAWR (Wheat, Winter, cv Riband); test: Preemergence herbicidal evaluation; type: in vivo, Triticum aestivum; conditions: rated 4-5 weeks after treatment
Procedure, shortened: as §2

[7] = test system: SETVI (Foxtail, Green); test: Preemergence herbicidal evaluation; type: in vivo, Setaria viridis; conditions: rated 4-5 weeks after treatment
Procedure, shortened: as §2

[8] = test system: ORYSAT (Rice, Tebonnet); test: Preemergence herbicidal evaluation; type: in vivo, Oryza sativa, (L.) Tebonnet; conditions: rated 4-5 weeks after treatment
Procedure, shortened: as §2

[9] = test system: ORYSAT (Rice, Tebonnet); test: Postemergence herbicidal evaluation; type: in vivo, Oryza sativa, (L.) Tebonnet; conditions: postemergence
Procedure, shortened: as §1

[10] = test system: CASOB (Sicklepod); test: Postemergence herbicidal evaluation; type: in vivo, Cassia obtusifolia; conditions: postemergence
Procedure, shortened: as §1

[11] = test system: ZEAMX (Corn, Field); test: Preemergence herbicidal evaluation; type: in vivo, Zea mays; conditions: rated 4-5 weeks after treatment
Procedure, shortened: as §2

[12] = test system: GLXMAW (Soybean, Williams); test: Preemergence herbicidal evaluation; type: in vivo, Glycine max, (L.) Merr. cv Williams; conditions: rated 4-5 weeks after treatment
Procedure, shortened: as §2

[13] = test system: MOOVA (Monochoria); test: Preemergence weed control under flooded paddy conditions; type: in vivo, Monochoria vaginalis; conditions: rated 3-4 weeks after treatment
Procedure, shortened: as §3

C#CC(C)N1C(=O)CSC1=Nc1cc(-n2c(=O)cc(C(F)(F)F)n(C)c2=O)c(F)cc1Cl (stereo not shown) [Compound 165, 3-{4-Chloro-2-fluoro-5-{[3-(1-methyl-2-propynyl)-4-oxo-2-thiazolidinylidene]amino}phenyl}-1-methyl-6-(trifluoromethyl)-2,4(1H,3H)-pyrimidinedione]
herbicidal rating CHEAL ([1]; rate 0.0156 kg/ha): 5.0 | herbicidal rating CHEAL ([1]; rate 0.0313 kg/ha): 6.0 | herbicidal rating CHEAL ([1]; rate 0.0625 kg/ha): 7.0 | herbicidal rating CHEAL ([1]; rate 0.1250 kg/ha): 9.0 | Preemergence herbicidal rating GALAP ([2]; 0.0156 kg/ha): 0.0 | Preemergence herbicidal rating GALAP ([2]; 0.0313 kg/ha): 0.0 | Preemergence herbicidal rating GALAP ([2]; 0.0625 kg/ha): 0.0 | Preemergence herbicidal rating GALAP ([2]; 0.1250 kg/ha): 4.0 | Preemergence herbicidal rating GALAP ([2]; 0.2500 kg/ha): 7.0 | Preemergence herbicidal rating GALAP ([2]; 0.5000 kg/ha): 8.0 | herbicidal effect rating, CYPIR ([3]; 0.0313 kg/ha): 6.0 | herbicidal effect rating, CYPIR ([3]; 0.0625 kg/ha): 7.0 | herbicidal effect rating, CYPIR ([3]; 0.1250 kg/ha): 9.0 | herbicidal effect rating, CYPIR ([3]; 0.2500 kg/ha): 9.0 | herbicidal effect rating, SAGPY ([4]; 0.0313 kg/ha): 4.0 | herbicidal effect rating, SAGPY ([4]; 0.0625 kg/ha): 5.0 | herbicidal effect rating, SAGPY ([4]; 0.1250 kg/ha): 4.0 | herbicidal effect rating, SAGPY ([4]; 0.2500 kg/ha): 7.0 | herbicidal rating ECHCG ([5]; rate 0.0156 kg/ha): 2.0 | herbicidal rating ECHCG ([5]; rate 0.0313 kg/ha): 4.0 | herbicidal rating ECHCG ([5]; rate 0.0625 kg/ha): 3.0 | herbicidal rating ECHCG ([5]; rate 0.1250 kg/ha): 5.0 | Preemergence herbicidal rating TRZAWR ([6]; 0.0156 kg/ha): 0.0 | Preemergence herbicidal rating TRZAWR ([6]; 0.0313 kg/ha): 0.0 | Preemergence herbicidal rating TRZAWR ([6]; 0.0625 kg/ha): 0.0 | Preemergence herbicidal rating TRZAWR ([6]; 0.1250 kg/ha): 1.0 | Preemergence herbicidal rating TRZAWR ([6]; 0.2500 kg/ha): 2.0 | Preemergence herbicidal rating TRZAWR ([6]; 0.5000 kg/ha): 4.0 | Preemergence herbicidal rating SETVI ([7]; 0.0156 kg/ha): 0.0 | Preemergence herbicidal rating SETVI ([7]; 0.0313 kg/ha): 6.0 | Preemergence herbicidal rating SETVI ([7]; 0.0625 kg/ha): 6.0 | Preemergence herbicidal rating SETVI ([7]; 0.1250 kg/ha): 9.0 | Preemergence herbicidal rating SETVI ([7]; 0.2500 kg/ha): 9.0 | Preemergence herbicidal rating SETVI ([7]; 0.5000 kg/ha): 9.0 | Preemergence herbicidal rating ORYSAT ([8]; 0.0156 kg/ha): 0.0 | Preemergence herbicidal rating ORYSAT ([8]; 0.0313 kg/ha): 0.0 | Preemergence herbicidal rating ORYSAT ([8]; 0.0625 kg/ha): 0.0 | Preemergence herbicidal rating ORYSAT ([8]; 0.1250 kg/ha): 1.0 | Preemergence herbicidal rating ORYSAT ([8]; 0.2500 kg/ha): 3.0 | Preemergence herbicidal rating ORYSAT ([8]; 0.5000 kg/ha): 5.0 | herbicidal rating ORYSAT ([9]; rate 0.0156 kg/ha): 2.0 | herbicidal rating ORYSAT ([9]; rate 0.0313 kg/ha): 1.5 | herbicidal rating ORYSAT ([9]; rate 0.0625 kg/ha): 3.0 | herbicidal rating ORYSAT ([9]; rate 0.1250 kg/ha): 4.0 | herbicidal rating CASOB ([10]; rate 0.0156 kg/ha): 0.0 | herbicidal rating CASOB ([10]; rate 0.0313 kg/ha): 2.0 | herbicidal rating CASOB ([10]; rate 0.0625 kg/ha): 3.0 | herbicidal rating CASOB ([10]; rate 0.1250 kg/ha): 3.0 | Preemergence herbicidal rating ZEAMX ([11]; 0.0156 kg/ha): 0.0 | Preemergence herbicidal rating ZEAMX ([11]; 0.0313 kg/ha): 0.0 | Preemergence herbicidal rating ZEAMX ([11]; 0.0625 kg/ha): 1.0 | Preemergence herbicidal rating ZEAMX ([11]; 0.1250 kg/ha): 1.0 | Preemergence herbicidal rating ZEAMX ([11]; 0.2500 kg/ha): 4.0 | Preemergence herbicidal rating ZEAMX ([11]; 0.5000 kg/ha): 7.0 | Preemergence herbicidal rating GLXMAW ([12]; 0.0156 kg/ha): 0.0 | Preemergence herbicidal rating GLXMAW ([12]; 0.0313 kg/ha): 0.0 | Preemergence herbicidal rating GLXMAW ([12]; 0.0625 kg/ha): 4.0 | Preemergence herbicidal rating GLXMAW ([12]; 0.1250 kg/ha): 4.0 | Preemergence herbicidal rating GLXMAW ([12]; 0.2500 kg/ha): 5.0 | Preemergence herbicidal rating GLXMAW ([12]; 0.5000 kg/ha): 6.0 | herbicidal effect rating, MOOVA ([13]; 0.0313 kg/ha): 9.0 | herbicidal effect rating, MOOVA ([13]; 0.0625 kg/ha): 9.0 | herbicidal effect rating, MOOVA ([13]; 0.1250 kg/ha): 9.0 | herbicidal effect rating, MOOVA ([13]; 0.2500 kg/ha): 9.0
